The results in this text go back to PubChem BioAssay (NCI).

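The compound was tested at five concentrations on cells cultured in 96-well plates, with a 48-hour exposure period. TGI: concentration producing complete growth inhibition.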

Common to all, as to assay: NCI tumour cell line growth inhibition, 48 h
The test system of experiment [1] is ACHN renal.
Experiment [2] concerns MALME-3M melanoma.
For experiment [3], the system named is HCC-2998 colon.
In experiment [4] the test system is SK-MEL-28 melanoma.
Experiment [5] relates to UACC-62 melanoma.
For experiment [6], the system named is OVCAR-4 ovarian.
Experiment [7] relates to CCRF-CEM leukemia.
Experiment [8] deals with CAKI-1 renal.
Experiment [9] deals with HL-60(TB) leukemia.
Experiment [10] concerns HOP-62 NSCLC.
Experiment [11] has as its system LXFL 529 NSCLC.
Experiment [12] concerns SK-MEL-5 melanoma.
Experiment [13] deals with SNB-19 CNS.
The test system of experiment [14] is MDA-MB-231 breast.
The test system of experiment [15] is NCI/ADR-RES ovarian.
Experiment [16] has as its system BT-549 breast.
Experiment [17] deals with MDA-N.
Experiment [18] relates to MDA-MB-435.
Experiment [19] concerns MCF7 breast.
The subject of experiment [20] is HS 578T breast.

Regarding `Cn1ccc2c(C(=O)c3ccccc3)cccc2c1=O`, the TGI in [1], in [2], in experiment [3], in experiment [4], in experiment [5] and in experiment [6] was greater than 100 µM throughout. Besides, the TGI in experiment [7] is greater than 100 µM; in [8], greater than 100 µM; in experiment [9] it was 88.9 µM; in [10], 93.7 µM; in [11] it was greater than 100 µM; in experiment [12], greater than 100 µM.
As for `O=C1C2C=CC(C2)C(c2ccc(O)cc2)N1O` (stereo not drawn), the TGI in experiment [13], in experiment [1], in [2], in experiment [3], in [4] and in experiment [5] was greater than 100 µM in each case. For the same molecule, the TGI in experiment [6], in [7], in experiment [8], in experiment [9], in [10] and in experiment [11] was greater than 100 µM in each case. For the same molecule, the TGI in [12] is greater than 100 µM.
Regarding `CN(C)CC1CCCC(CN(C)C)C1=NOC(=O)c1ccccc1` (stereo not drawn), the TGI in [13], in experiment [1], in experiment [2], in [3], in experiment [4] and in [5] was greater than 100 µM throughout. The TGI in experiment [7], in experiment [9], in experiment [10], in experiment [11] and in experiment [12] was greater than 100 µM in each case.
For `CCCC/C=C1\CCC(C)(CN(C)C)C1=O` (stereo not drawn), the TGI in [1], in experiment [2], in experiment [3], in [4], in experiment [5] and in experiment [6] was greater than 100 µM throughout. Further, the TGI in experiment [7], in [8], in experiment [9], in experiment [10], in experiment [11] and in [12] was greater than 100 µM throughout.
Turning to `CCOC(=O)/C(=C\c1cccs1)P(=O)(OCC)OCC`, the TGI was greater than 100 µM in experiment [13]; 32.3 µM in experiment [1]; 52.6 µM in experiment [2]; 33.1 µM in experiment [3]; 32.7 µM in experiment [4]; 32.8 µM in experiment [5]. Moreover, the TGI is 37.5 µM in experiment [6]; greater than 100 µM in experiment [7]; 35.4 µM in [8]; 73.3 µM in [9]; greater than 100 µM in [10]; 41.4 µM in experiment [11]. In addition, the TGI in experiment [12] was found to be 31.6 µM.
In the case of `COC(=O)[C@]12CC=C3O[C@@H]4OC5(CCCCC5)O[C@@H]4C3[C@@H]1C(=O)CCC2=O` (stereo partly drawn), the TGI in experiment [13], in [1], in [2], in experiment [3], in [4] and in experiment [5] was greater than 100 µM each time. Further, the TGI in experiment [6], in [7], in experiment [8], in experiment [9], in [10] and in experiment [11] was greater than 100 µM in each case. In experiment [12], this molecule showed a TGI greater than 100 µM.
For the molecule `COc1cc2c(cc1OC)[C@H]1C(COC(=O)c3ccccc3)CSC(=Nc3ccccc3)N1CC2` (stereo partly drawn), the TGI in experiment [13], in experiment [1], in experiment [2], in experiment [3], in experiment [4] and in experiment [5] was greater than 100 µM in each case. Also, the TGI in experiment [6], in experiment [7], in [8], in experiment [9], in [10] and in [11] was greater than 100 µM throughout. Further, the TGI in experiment [12] was greater than 100 µM.
Regarding `O=C(O)CCc1cccc2c1oc1c(CCC(=O)O)cccc12`, the TGI in experiment [13], in experiment [1], in experiment [2], in [3], in experiment [4] and in experiment [5] was greater than 100 µM each time. Moreover, the TGI in experiment [6], in experiment [7], in experiment [8], in experiment [9], in experiment [11] and in experiment [12] was greater than 100 µM in each case.
In the case of `NC(CCC(=O)NC(CSC(=O)N(O)c1ccccc1)C(=O)NCC(=O)O)C(=O)O` (stereo not drawn), the TGI in [13], in [1], in experiment [2], in experiment [3], in experiment [4] and in experiment [5] was greater than 1000 µM throughout. The TGI in experiment [6], in [7], in experiment [8], in experiment [9], in [10] and in experiment [11] was greater than 1000 µM throughout. Moreover, the TGI in [12] was greater than 1000 µM.
As for `COc1cc(C(O)C(=O)c2nc3ccc([N+](=O)[O-])cc3[nH]c2=O)ccc1O` (stereo not drawn), the TGI in experiment [13], in experiment [1], in experiment [2], in experiment [3], in experiment [4] and in [5] was greater than 100 µM throughout. Moreover, the TGI in experiment [6], in [7], in [8], in [9], in [10] and in [11] was greater than 100 µM each time. Also, the TGI in experiment [12] was greater than 100 µM.
For `CCCCCCCCCCCCCCCCOCC(CP(=O)([O-])OCC[n+]1ccccc1)OC` (stereo not drawn), the TGI came to 21.6 µM in experiment [13]; 32.8 µM in experiment [2]; 7.4 µM in [3]; 32.2 µM in [4]; 24.5 µM in [5]; 24.1 µM in experiment [6]. Further, the TGI in [7] worked out at 25.6 µM; in experiment [8] it was 22.2 µM; in [9], 5.19 µM; in experiment [10] it was 25.2 µM; in experiment [11] it was 23.5 µM; in experiment [12], 27.7 µM.
For the molecule `CC(O)c1ccc[n+](Cc2ccccc2)c1` (stereo not drawn), the TGI in [13], in experiment [1], in experiment [2], in [3], in experiment [4] and in experiment [5] was greater than 400 µM in each case. For the same molecule, the TGI in experiment [7], in experiment [8], in [9], in [10], in experiment [11] and in experiment [12] was greater than 400 µM each time.
Take `CCCCN(Cc1ccccc1)C(=NC#N)N(Cc1ccccc1)Cc1ccccc1`: the TGI in [13] is greater than 100 µM; in experiment [14], 51.7 µM; in experiment [15], 59.7 µM; in experiment [16], 62.8 µM; in experiment [17], 59.9 µM; in experiment [1], greater than 72.3 µM. In addition, the TGI in experiment [2] was 79.4 µM; in [3] it was greater than 75.7 µM; in experiment [18], 59.3 µM; in [4], greater than 100 µM; in experiment [5], 74.7 µM; in experiment [19], greater than 100 µM. The TGI in [6] was greater than 100 µM; in experiment [7] it was greater than 100 µM; in [20], 99.1 µM; in experiment [8] it was 58.4 µM; in [9], greater than 100 µM; in experiment [10], 75.3 µM. For the same molecule, the values for the TGI in [11] and in experiment [12] were 34.3 µM and 29.4 µM, respectively.
As for `Cn1c(Cl)cn2c3nc4ccccc4nc3c(=O)c(C#N)c12`, the TGI in experiment [13], in [14], in experiment [15], in experiment [16], in experiment [17] and in experiment [1] was greater than 100 µM in each case. Besides, the TGI was greater than 100 µM in experiment [2]; greater than 67.8 µM in experiment [3]; greater than 100 µM in experiment [18]; greater than 100 µM in [4]; greater than 100 µM in experiment [5]; greater than 100 µM in experiment [19]. Moreover, the TGI in experiment [6], in experiment [7], in experiment [20], in experiment [8], in [9] and in experiment [11] was greater than 100 µM in each case. This molecule also came in with a TGI in experiment [12] greater than 100 µM.
